In patent US9938322B2, “β-hairpin peptidomimetics” (priority 2013, dated 2018):
Where a SMILES comes first, the peptide text is derived from it. [ ]: non-standard residue; d: D form. Phe(4-CF3) = N[C@@H](Cc1ccc(C(F)(F)F)cc1)C(=O)O; Ala(4-thiazolyl) = N[C@@H](Cc1cscn1)C(=O)O; Cha = N[C@@H](CC1CCCCC1)C(=O)O; Chg = N[C@H](C(=O)O)C1CCCCC1; Tle = CC(C)(C)[C@H](N)C(=O)O; dDab = NCC[C@@H](N)C(=O)O; Orn = NCCC[C@H](N)C(=O)O; Dab = NCC[C@H](N)C(=O)O; Nva = CCC[C@H](N)C(=O)O; Dap = NC[C@H](N)C(=O)O

Each compound was assayed on human red blood cells (hRBC) (assay: Hemolysis of human red blood cells). Details: red cells of human, 1 h, 100.
Type: cell-based
In short: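 Washed fresh human erythrocytes (20% v/v, about 0.9×10^9 cells/ml final) incubated with peptide at 100 μg/ml for 1 h at 37° C with shaking. Supernatant OD540 read; hemolysis expressed relative to 2.5% Triton X-100 (100%) and PBS with 0.001% acetic acid (0%).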

| Structure (SMILES) | Hemolysis at 100 μg/ml [%] |
| --- | --- |
| CC(C)C[C@@H]1NC(=O)[C@@H]2CCCN2C(=O)[C@H]2CCCN2C(=O)[C@H](CO)NC(=O)[C@H](C)NC(=O)[C@H](C2CCCCC2)NC(=O)[C@H](CCN)NC(=O)[C@H](Cc2c[nH]c3ccccc23)NC(=O)[C@H](CCN)NC(=O)[C@@H](CCN)NC(=O)[C@H](CCCN)NC(=O)[C@H](CCN)NC(=O)[C@H](C(C)(C)C)NC(=O)[C@H](CO)NC1=O [compound 137] (cyclo(LS[Tle][Dab][Orn][dDab][Dab]W[Dab][Chg]AS[dP]P)) | 4 |
| CC(C)C[C@@H]1NC(=O)[C@@H]2CCCN2C(=O)[C@H]2CCCN2C(=O)[C@H](CO)NC(=O)[C@H](C)NC(=O)[C@H](Cc2c[nH]c3ccccc23)NC(=O)[C@H](CCN)NC(=O)[C@H](Cc2c[nH]c3ccccc23)NC(=O)[C@H](CCN)NC(=O)[C@@H](CCN)NC(=O)[C@H](CCCN)NC(=O)[C@H](CCN)NC(=O)[C@H](Cc2ccc(O)cc2)NC(=O)[C@H](CO)NC1=O [compound 34] (cyclo(LSY[Dab][Orn][dDab][Dab]W[Dab]WAS[dP]P)) | 1 |
| CC(C)C[C@@H]1NC(=O)[C@@H]2CCCN2C(=O)[C@H]2CCCN2C(=O)[C@H](CO)NC(=O)[C@@H](C)NC(=O)[C@H](C(C)(C)C)NC(=O)[C@H](CCN)NC(=O)[C@H](Cc2c[nH]c3ccccc23)NC(=O)[C@H](CCN)NC(=O)[C@@H](CCN)NC(=O)[C@H](CCCN)NC(=O)[C@H](CCN)NC(=O)[C@H](Cc2ccc(O)cc2)NC(=O)[C@H](CO)NC1=O [compound 154] (cyclo(LSY[Dab][Orn][dDab][Dab]W[Dab][Tle][dA]S[dP]P)) | 0 |
| COC[C@@H]1NC(=O)[C@H](Cc2c[nH]c3ccccc23)NC(=O)[C@@H]2CCCN2C(=O)[C@H]2CCCN2C(=O)[C@H](CO)NC(=O)[C@H](C)NC(=O)[C@H](C(C)(C)C)NC(=O)[C@H](CCN)NC(=O)[C@H](Cc2c[nH]c3ccccc23)NC(=O)[C@H](CCN)NC(=O)[C@@H](CCN)NC(=O)[C@H](CCCN)NC(=O)[C@H](CCN)NC(=O)[C@H](CC2CCCCC2)NC1=O [compound 2] (cyclo(WS(Me)[Cha][Dab][Orn][dDab][Dab]W[Dab][Tle]AS[dP]P)) | 1.7 |
| CC(C)C[C@@H]1NC(=O)[C@@H]2CCCN2C(=O)[C@H]2CCCN2C(=O)[C@H](CO)NC(=O)[C@H](CC(N)=O)NC(=O)[C@H](C(C)(C)C)NC(=O)[C@H](CCN)NC(=O)[C@H](Cc2c[nH]c3ccccc23)NC(=O)[C@H](CCN)NC(=O)[C@@H](CCN)NC(=O)[C@H](CCCN)NC(=O)[C@H](CCN)NC(=O)[C@H](Cc2ccc(O)cc2)NC(=O)[C@H]([C@@H](C)O)NC1=O [compound 119] (cyclo(LTY[Dab][Orn][dDab][Dab]W[Dab][Tle]NS[dP]P)) | 1 |
| CCC[C@@H]1NC(=O)[C@@H]2CCCN2C(=O)[C@H]2CCCN2C(=O)[C@H](CO)NC(=O)[C@H](C)NC(=O)[C@H](C(C)(C)C)NC(=O)[C@H](CCN)NC(=O)[C@H](Cc2c[nH]c3ccccc23)NC(=O)[C@H](CCN)NC(=O)[C@@H](CCN)NC(=O)[C@H](CCCN)NC(=O)[C@H](CCN)NC(=O)[C@H](Cc2ccc(C(F)(F)F)cc2)NC(=O)[C@H](CO)NC1=O [compound 106] (cyclo([Nva]S[Phe(4-CF3)][Dab][Orn][dDab][Dab]W[Dab][Tle]AS[dP]P)) | 2 |
| CC(C)C[C@@H]1NC(=O)[C@@H]2CCCN2C(=O)[C@H]2CCCN2C(=O)[C@H](CO)NC(=O)[C@H](Cc2ccc(O)cc2)NC(=O)[C@H](C(C)(C)C)NC(=O)[C@H](CCN)NC(=O)[C@H](Cc2c[nH]c3ccccc23)NC(=O)[C@H](CCN)NC(=O)[C@@H](CCN)NC(=O)[C@H](CCCN)NC(=O)[C@H](CCN)NC(=O)[C@H](Cc2ccc(O)cc2)NC(=O)[C@H]([C@@H](C)O)NC1=O [compound 113] (cyclo(LTY[Dab][Orn][dDab][Dab]W[Dab][Tle]YS[dP]P)) | 0 |
| CC(C)[C@@H]1NC(=O)[C@@H]2CCCN2C(=O)[C@H]2CCCN2C(=O)[C@H](CO)NC(=O)[C@H](C)NC(=O)[C@H](C(C)(C)C)NC(=O)[C@H](CCN)NC(=O)[C@H](Cc2c[nH]c3ccccc23)NC(=O)[C@H](CCN)NC(=O)[C@@H](CCN)NC(=O)[C@H](CCCN)NC(=O)[C@H](CCN)NC(=O)[C@H](CC2CCCCC2)NC(=O)[C@H](CO)NC1=O [compound 50] (cyclo(VS[Cha][Dab][Orn][dDab][Dab]W[Dab][Tle]AS[dP]P)) | 4 |
| CC(C)C[C@@H]1NC(=O)[C@@H]2CCCN2C(=O)[C@H]2CCCN2C(=O)[C@H](CO)NC(=O)[C@H](C)NC(=O)[C@H](C(C)(C)C)NC(=O)[C@H](CCN)NC(=O)[C@H](Cc2c[nH]c3ccccc23)NC(=O)[C@H](CCCNC(=N)N)NC(=O)[C@@H](CCN)NC(=O)[C@H](CCCN)NC(=O)[C@H](CCN)NC(=O)[C@H](Cc2ccc(O)cc2)NC(=O)[C@H](CO)NC1=O [compound 102] (cyclo(LSY[Dab][Orn][dDab]RW[Dab][Tle]AS[dP]P)) | 0 |
| CC(C)C[C@@H]1NC(=O)[C@@H]2CCCN2C(=O)[C@H]2CCCN2C(=O)[C@H](CO)NC(=O)[C@H](CCN)NC(=O)[C@H](C(C)(C)C)NC(=O)[C@H](CCN)NC(=O)[C@H](Cc2c[nH]c3ccccc23)NC(=O)[C@H](CCN)NC(=O)[C@@H](CCN)NC(=O)[C@H](CCCN)NC(=O)[C@H](CCN)NC(=O)[C@H](Cc2ccc(O)cc2)NC(=O)CNC1=O [compound 157] (cyclo(LGY[Dab][Orn][dDab][Dab]W[Dab][Tle][Dab]S[dP]P)) | 1 |
| CC(C)C[C@@H]1NC(=O)[C@@H]2CCCN2C(=O)[C@H]2CCCN2C(=O)[C@H](CO)NC(=O)[C@H](C)NC(=O)[C@H](C(C)(C)C)NC(=O)[C@H](CCN)NC(=O)[C@H](Cc2c[nH]c3ccccc23)NC(=O)[C@H](CCN)NC(=O)[C@@H](CCN)NC(=O)[C@H](CCCN)NC(=O)[C@H](CCCN)NC(=O)[C@H](Cc2ccc(O)cc2)NC(=O)[C@H](CO)NC1=O [compound 87] (cyclo(LSY[Orn][Orn][dDab][Dab]W[Dab][Tle]AS[dP]P)) | 1 |
| COC[C@@H]1NC(=O)[C@H](C(C)(C)C)NC(=O)[C@H](CCN)NC(=O)[C@H](Cc2c[nH]c3ccccc23)NC(=O)[C@H](CCN)NC(=O)[C@@H](CCN)NC(=O)[C@H](CCCN)NC(=O)[C@H](CCN)NC(=O)[C@H](CC2CCCCC2)NC(=O)[C@H](CN)NC(=O)[C@H](Cc2c[nH]c3ccccc23)NC(=O)[C@@H]2CCCN2C(=O)[C@H]2CCCN2C(=O)[C@H](CO)NC1=O [Ex. 6] (cyclo(W[Dap][Cha][Dab][Orn][dDab][Dab]W[Dab][Tle]S(Me)S[dP]P)) | 3 |
| CCC[C@@H]1NC(=O)[C@@H]2CCCN2C(=O)[C@H]2CCCN2C(=O)[C@H]([C@@H](C)O)NC(=O)[C@H](CO)NC(=O)[C@H](C2CCCCC2)NC(=O)[C@H](CCN)NC(=O)[C@H](Cc2c[nH]c3ccccc23)NC(=O)[C@H](CCN)NC(=O)[C@@H](CCN)NC(=O)[C@H](CCN)NC(=O)[C@H](CCN)NC(=O)[C@H](Cc2ccc(O)cc2)NC(=O)[C@H](C)NC1=O [compound 132] (cyclo([Nva]AY[Dab][Dab][dDab][Dab]W[Dab][Chg]ST[dP]P)) | 1.5 |
| CC[C@H](C)[C@@H]1NC(=O)[C@@H]2CCCN2C(=O)[C@H]2CCCN2C(=O)[C@H](CO)NC(=O)[C@H](C)NC(=O)[C@H](C2CCCCC2)NC(=O)[C@H](CCN)NC(=O)[C@H](Cc2c[nH]c3ccccc23)NC(=O)[C@H](CCN)NC(=O)[C@@H](CCN)NC(=O)[C@H](CCCN)NC(=O)[C@H](CCN)NC(=O)[C@H](C(C)(C)C)NC(=O)[C@H](CO)NC1=O [compound 136] (cyclo(IS[Tle][Dab][Orn][dDab][Dab]W[Dab][Chg]AS[dP]P)) | 5 |
| C[C@@H]1NC(=O)[C@H](C(C)(C)C)NC(=O)[C@H](CCN)NC(=O)[C@H](Cc2c[nH]c3ccccc23)NC(=O)[C@H](CCN)NC(=O)[C@@H](CCN)NC(=O)[C@H](CCCN)NC(=O)[C@H](CCN)NC(=O)[C@H](Cc2c[nH]c3ccccc23)NC(=O)[C@H](CN)NC(=O)[C@H](Cc2c[nH]c3ccccc23)NC(=O)[C@@H]2CCCN2C(=O)[C@H]2CCCN2C(=O)[C@H](CO)NC1=O [compound 79] (cyclo(W[Dap]W[Dab][Orn][dDab][Dab]W[Dab][Tle]AS[dP]P)) | 1 |
| CC(C)C[C@@H]1NC(=O)[C@@H]2CCCN2C(=O)[C@H]2CCCN2C(=O)[C@H](CO)NC(=O)[C@H](C)NC(=O)[C@H](C(C)(C)C)NC(=O)[C@H](CCN)NC(=O)[C@H](Cc2c[nH]c3ccccc23)NC(=O)[C@H](CCN)NC(=O)[C@@H](CCN)NC(=O)[C@H](CCN)NC(=O)[C@H](CCN)NC(=O)[C@H](Cc2ccc(O)cc2)NC(=O)[C@H](CO)NC1=O [compound 96] (cyclo(LSY[Dab][Dab][dDab][Dab]W[Dab][Tle]AS[dP]P)) | 1 |
| CC(C)C[C@@H]1NC(=O)[C@@H]2CCCN2C(=O)[C@H]2CCCN2C(=O)[C@H](CO)NC(=O)[C@H](C)NC(=O)[C@H](C(C)(C)C)NC(=O)[C@H](CCN)NC(=O)[C@H](Cc2c[nH]c3ccccc23)NC(=O)[C@H](CCN)NC(=O)[C@H](CCN)NC(=O)[C@H](CCCCN)NC(=O)[C@H](CCN)NC(=O)[C@H](Cc2ccc(O)cc2)NC(=O)[C@H](CO)NC1=O [compound 26] (cyclo(LSY[Dab]K[Dab][Dab]W[Dab][Tle]AS[dP]P)) | 1 |
| C[C@@H]1NC(=O)[C@H](CC2CCCCC2)NC(=O)[C@H](CCN)NC(=O)[C@H](Cc2c[nH]c3ccccc23)NC(=O)[C@H](CCN)NC(=O)[C@@H](CCN)NC(=O)[C@H](CCCCN)NC(=O)[C@H](CCN)NC(=O)[C@H](Cc2ccc(O)cc2)NC(=O)[C@H](C)NC(=O)[C@H](Cc2c[nH]c3ccccc23)NC(=O)[C@@H]2CCCN2C(=O)[C@H]2CCCN2C(=O)[C@H](CO)NC1=O [compound 76] (cyclo(WAY[Dab]K[dDab][Dab]W[Dab][Cha]AS[dP]P)) | 2 |
| C[C@@H]1NC(=O)[C@H](C(C)(C)C)NC(=O)[C@H](CCN)NC(=O)[C@H](Cc2c[nH]c3ccccc23)NC(=O)[C@H](CCN)NC(=O)[C@@H](CCN)NC(=O)[C@H](CCCN)NC(=O)[C@H](CCN)NC(=O)[C@H](CC2CCCCC2)NC(=O)[C@H](CO)NC(=O)[C@H](Cc2cscn2)NC(=O)[C@@H]2CCCN2C(=O)[C@H]2CCCN2C(=O)[C@H](CO)NC1=O [compound 22] (cyclo([Ala(4-thiazolyl)]S[Cha][Dab][Orn][dDab][Dab]W[Dab][Tle]AS[dP]P)) | 0 |
